Results as given in patent publication US20180244625A1, “FUNGICIDAL COMPOSITIONS” (Syngenta Participations AG, priority 2015, published 2018).
Like-named read-outs stand apart in the source and are kept apart here.

Test system: Uncinula necator
Assay: Uncinula necator/Grape (powdery mildew on grape), preventive spray test on grape seedlings
Format: in vivo
Conditions: Erysiphe necator
Excerpt: A synergistic effect exists whenever the action of an active ingredient combination is greater than the sum of the actions of the individual components. The action to be expected E for a given active ingredient combination obeys the so-called COLBY formula and can be calculated as follows (COLBY, S. R. “Calculating synergistic and antagonistic responses of herbicide combination”, Weeds, Vol. 15, pages 20-22; 1967): ppm=milligrams of active ingredient (=a.i.) per liter of spray mixture X=% action by active ingredient (A) using p ppm of active ingredient Y=% action by active ingredient (B) using q ppm of active ingredient. According to COLBY, the expected (additive) action of active ingredients (A)+(B) using p+q ppm of active ingredient is [formula] If the action actually observed (O) is greater than the expected action (E), then the action of the combination is super-additive, i.e. there is a synergistic effect. In mathematical terms, synergism corresponds to a positive value for the difference of (O-E). In the case of purely complementary addition of activities (expected activity), said difference (O-E) is zero. A negative value of said difference (O-E) signals a loss of activity compared to the expected activity. Uncinula necator/Grape (Powdery Mildew on Grape) Five-week-old grape seedlings cv. Gutedel were treated with the formulated testcompound in a spray chamber. One day after application grape plants were inoculated by shaking plants infected with grape powdery mildew above the test plants. After an incubation period of 7 days at 26° C. and 60% r. h. under a light regime of 14/10 h (light/dark) the disease incidence was assessed.

Row | SMILES | inhibition at 1 pg/mL (Flutianil 0.000001 mg/l alone) [%] | inhibition at 10 pg/mL (Flutianil 0.00001 mg/l alone, read-out: Flutianil Inhibition (%)) [%] | inhibition at 0.0001 µg/mL (Flutianil 0.0001 mg/l alone, read-out: Flutianil Inhibition (%)) [%] | inhibition at 0.001 µg/mL (Flutianil 0.001 mg/l alone, read-out: Flutianil Inhibition (%)) [%] | inhibition at 0.01 µg/mL (Flutianil 0.01 mg/l alone, read-out: Flutianil Inhibition (%)) [%] | inhibition at 0.1 µg/mL (168 h, Compound 1.001 0.1 mg/l alone, grape seedlings cv. Gutedel, 7 days after inoculation) [%] | inhibition at 10 pg/mL (Compound 1.001 0.00001 mg/l alone, read-out: Compound 1.001 inhibition (%)) [%] | inhibition at 0.0001 µg/mL (Compound 1.001 0.0001 mg/l alone, read-out: Compound 1.001 inhibition (%)) [%] | inhibition at 0.001 µg/mL (Compound 1.001 0.001 mg/l alone, read-out: Compound 1.001 inhibition (%)) [%] | inhibition at 0.01 µg/mL (Compound 1.001 0.01 mg/l alone, read-out: Compound 1.001 inhibition (%)) [%]
1 | COc1ccccc1N1CCS/C1=C(/C#N)Sc1cc(C(F)(F)F)ccc1F [Flutianil, (2Z)-{[2-fluoro-5-(trifluoromethyl)phenyl]sulfanyl}[3-(2-methoxyphenyl)-1,3-thiazolidin-2-ylidene]acetonitrile] | 0 | 1.3 | 1 | 26.8 | 100 |  |  |  |  | 
2 | CON(C(=O)c1cn(C)nc1C(F)F)C(C)Cc1c(Cl)cc(Cl)cc1Cl (stereo not shown) [Compound 1.001, 3-(difluoromethyl)-N-methoxy-1-methyl-N-[1-methyl-2-(2,4,6-trichlorophenyl)ethyl]pyrazole-4-carboxamide] |  |  |  |  |  | 90.4 | 0 | 0 | 1.7 | 12.9
